Data published in patent US8372967B2, “Compounds and methods for modulating expression of GCCR” (Isis Pharmaceuticals, Inc., priority 2006, dated 2013).
Strand notation (5' to 3'): a small letter for the sugar, then the base; units joined by * are phosphorothioate-linked, units joined directly phosphodiester-linked; [ ] holds rarer units or linkages, { } end groups; capitals alone tell only the bases. [PAM-N] = nucleoside carrying a 2'-(butylacetamido)-palmitamide group (palmitic acid C16 conjugate) (N: the base); e = 2'-O-(2-methoxyethyl) (MOE); l = locked nucleic acid (LNA); [5mC] = 5-methylcytosine; d = 2'-deoxy (DNA)

How the values were obtained:
ApoB mRNA [1] = test: ApoB mRNA level in liver, Balb/c mice dosed i.p. twice per week for three weeks (Table 29); EC50 in liver; format: in vivo, mouse; conditions: for ApoB mRNA level: Table 30, Balb/c mice; for % ApoB mRNA Level (relative to saline control): liver, Balb/c mice
Experimental: Prior to quantitative PCR analysis, primer-probe sets specific to the target gene being measured were evaluated for their ability to be “multiplexed” with a GAPDH amplification reaction. After isolation the RNA is subjected to sequential reverse transcriptase (RT) reaction and real-time PCR, both of which are performed in the same well. RT and PCR reagents were obtained from Invitrogen Life Technologies (Carlsbad, Calif.). […] The RT reaction was carried out by incubation for 30 minutes at 48° C. Following a 10 minute incubation at 95° C. to activate the PLATIN 9M® Taq, 40 cycles of a two-step PCR protocol were carried out: 95° C. for 15 seconds (denaturation) followed by 60° C. for 1.5 minutes (annealing/extension).
170 μL of RiboGreen® working reagent (RiboGreen® reagent diluted 1:350 in 10 mM Tris-HCl, 1 mM EDTA, pH 7.5) was pipetted into a 96-well plate containing 30 μL purified cellular RNA. The plate was read in a CytoFluor® 4000 (PE Applied Biosystems) with excitation at 485 nm and emission at 530 nm.
(§1) Antisense compound doses included 2.4, 1.2, 0.6, 0.3 and 0.15 μmol/kg. For antisense compounds 14 nucleotides in length, these doses equate to approximately 12, 6, 3, 1.5 or 0.75 mg/kg, respectively. Shown in Table 25 are the sequences and motifs of the antisense compounds used in this study. […] Bolded residues indicate 2′-O-methoxyethyl moieties and italicized residues indicate methyleneoxy (4′-CH2—O-2′) BNAs. The internucleoside linkages of each compound are phosphorothioate throughout. All cytosine residues of ISIS 147764 and ISIS 372938 are replaced by 5-methyl cytosines. For ISIS 387462, only the cytosine residue in the wing of the compound is replaced by 5-methyl cytosine. ApoB antisense compounds are targeted to publicly available ApoB-100 sequences, including Genbank Accession No. XM—137955.5 (SEQ ID NO: 2).
(§2) Forty-eight hours following the final injection, mice were sacrificed to evaluate transaminases (Table 26); liver and kidney weight (Table 27); triglyceride, LDL, HDL and free fatty acid levels (Table 28); target mRNA level in liver (Table 29); target protein level in plasma; and oligonucleotide tissue concentration (Table 30). These endpoints were determined using methods described herein and well known to those of ordinary skill in the art.
The EC50 for ISIS 387462 in the liver was determined by comparing oligonucleotide concentration in the liver to inhibition of ApoB mRNA.

[2] = ALT and AST levels and adverse side effects, ApoB study (Table 26); format: in vivo, mouse; conditions: Balb/c mice, i.p. twice per week for three weeks, 48 h after final injection
Experimental: as §1, §2

[3] = Triglyceride, total cholesterol, HDL, LDL and free fatty acid levels, ApoB study (Table 28); format: in vivo, mouse; set-up: Free Fatty Acid (FFA): unit not given here; conditions: Balb/c mice, i.p. twice per week for three weeks
Experimental: as §1, §2

[4] = Liver and kidney weight, body weight, food consumption, glucose, ApoB study (Table 27); format: in vivo, mouse; conditions: Balb/c mice, i.p. twice per week for three weeks
Experimental: as §1, §2
Glucose levels also were similar among all treatment groups.

[5] = Full-length and total antisense compound tissue concentration in liver and kidney, ApoB study (Table 30); format: in vivo, mouse; conditions: Balb/c mice, i.p. twice per week for three weeks, 2.4 μmol/kg
Experimental: as §1, with “ApoB antisense compounds are targeted to publicly available ApoB-100 sequences, including Genbank Accession No. XM—137955.5 (SEQ ID NO: 2).” left out
as §2
To determine whether the observed increase in efficiency with the methyleneoxy (4′-CH2—O-2′) BNA gapmer is due to an increase in oligonucleotide accumulation, full-length and total oligonucleotide concentration in the liver and kidney were determined.

[6] = Transaminase levels and organ weights, PTEN study (Table 47); format: in vivo, mouse; conditions: single i.p. 8 μmol/kg, 72 h
Description: (§3) Each dose group consisted of four animals. Shown in Table 46 are the sequences and motifs of the PTEN antisense compounds used in this study. Bolded residues indicate 2′-O-methoxyethyl moieties (2′-MOE) and italicized residues indicate Methyleneoxy BNA nucleotides. Each antisense compound comprises phosphorothioate linkages throughout. In addition, the cytosine residues in the gap of ISIS 384073 and in the wings of ISIS 392056, ISIS 392057, ISIS 392061 and ISIS 392063 are replaced with 5-methylcytosines. Antisense compounds target published PTEN nucleic acids, including Genbank Accession No. U92437.1 (SEQ ID
(§4) Mice were sacrificed 72 hours following injection to determine serum transaminase levels (Table 47); liver and spleen weights (Table 47); and PTEN mRNA levels in liver, kidney and fat (Table 48), according to procedures described herein and well know to one of ordinary skill in the art.

PTEN mRNA = PTEN mRNA levels in liver, kidney and fat, Balb/c mice, single i.p. 8 μmol/kg (Table 48); format: in vivo, mouse; conditions: 72 h, saline = 100
Description: as §3, §4

ApoB mRNA [7] = test: ApoB mRNA in liver, Balb/c mice, BNA short antisense compounds twice per week for three weeks (Table 89); format: in vivo, mouse; conditions: relative to saline
Experimental: The short antisense compounds shown in Table 88 were tested for their effects in vivo. […] A 5-10-5 MOE gapmer was used for a control treatment. Mice were sacrificed approximately 48 hours following the final dose. Liver tissue was collected for RNA isolation, and blood was collected for serum chemistry analyses. ApoB mRNA levels were measured by real-time PCR as described herein. ApoB mRNA levels were normalized to RNA levels as determined by RIBOGREEN, and are presented in Table 89 as percent inhibition relative to ApoB mRNA levels in saline-treated control animals.

ApoB mRNA [8] = test: ApoB mRNA in liver and ED50, single dose of BNA short antisense compounds (Table 92); format: in vivo, mouse; conditions: ApoB mRNA in liver, Balb/c mice, relative to saline
Experimental: (§5) The short antisense compounds tested were ISIS 387462 and ISIS 398296. Each dose group consisted of four animals. A 5-10-5 MOE gapmer was used for a control treatment. Mice were sacrificed approximately 48 hours following the final dose. Liver tissue was collected for RNA isolation, and blood was collected for serum chemistry analyses. ApoB mRNA levels were measured by real-time PCR as described herein. ApoB mRNA levels were normalized to RNA levels as determined by RIBOGREEN, and are presented in Table 92 as percent inhibition relative to ApoB mRNA levels in saline-treated control animals.
At the 8 umol/kg dose, ApoB inhibition by the short antisense compounds was greater than observed with a 5-10-5 MOE gapmer at an equivalent dose. […] Triglycerides were reduced at the highest dose.

PTP1B mRNA [9] = test: Dose response for human PTP1B in HuVEC cells, PPS 198 and PPS 3000 (Tables 86, 87); format: cell-based
Experimental: Human vascular endothelial (HuVEC) cells were plated at a density of 5000 cells per well and treated as described herein with nM concentrations of short antisense compound as indicated in Table 86. After the treatment period, RNA was isolated from the cells and PTP1B mRNA levels were measured by quantitative real-time PCR, as described herein. PTP1B mRNA levels were adjusted according to total RNA content as measured by RIBOGREEN®. Two different human PTP1B primer probe sets were used to measure mRNA levels. Results with Primer Probe Set (PPS) 198 are shown in Table 86, and results with Primer Probe Set (PPS) 3000 are shown in Table 87. Results are presented as percent inhibition of PTP1B mRNA expression relative to untreated control cells.

PTP1B mRNA [10] = test: Antisense inhibition of human PTP1B in HuVEC cells, 3 nM (Table 84); format: cell-based
Experimental: Short antisense compounds targeted to a PTP1B nucleic acid were tested for their effects on PTP1B mRNA in vitro. Cultured HuVEC cells at a density of 5000 cells per well in a 96-well plate were treated as described herein with 3 nM of short antisense compound. After the treatment period, RNA was isolated from the cells and PTP1B mRNA levels were measured by quantitative real-time PCR, as described herein. PTP1B mRNA levels were adjusted according to total RNA content as measured by RIBOGREEN®. Results are presented as percent inhibition of PTP1B (% Inhib), relative to untreated control cells.

PTP1B mRNA [11] = test: Antisense inhibition of human PTP1B in HepG2 cells, 25 nM (Table 85); format: cell-based
Experimental: Short antisense compounds targeted to a PTP1B nucleic acid were tested for their effects on PTP1B mRNA in vitro. Cultured HepG2 cells at a density of 10000 cells per well in a 96-well plate were treated with 25 nM of antisense oligonucleotide. After the treatment period, RNA was isolated from the cells and PTP1B mRNA levels were measured by quantitative real-time PCR, as described herein. PTP1B mRNA levels were adjusted according to total RNA content as measured by RIBOGREEN®. Results are presented as percent inhibition (% Ihib) of PTP1B, relative to untreated control cells.

[12] = Triglycerides, total cholesterol, HDL-C, LDL-C and adverse effects (Example 30); format: in vivo, mouse
Experimental: as §5, with “0.4,” for “The short antisense compounds tested were ISIS 387462”, “0.16 umol/kg.” for “ISIS 398296.”, “95” for “92”
At the 2.5 umol/kg dose, ApoB inhibition by the short antisense compounds was greater than observed with a 5-10-5 MOE gapmer at an equivalent dose. […] Triglycerides were reduced at the 2.5 and […] doses of ISIS 387462 and ISIS 391872.

## 147764 (antisense eG*eT*e[5mC]*e[5mC]*e[5mC]*dT*dG*dA*dA*dG*dA*dT*dG*dT*d[5mC]*eA*eA*eT*eG*e[5mC]) [compound 147764]
ApoB mRNA [1]; 2.4 μmol/kg
  ApoB mRNA level: 58 % of saline control
[2]; 2.4 μmol/kg
  AST: 64.0 IU/L

## 372938 (antisense eG*eG*dT*dA*d[5mC]*dA*dT*dG*dG*dA*dA*dG*eT*e[5mC]) [compound 372938]
[3]; 0.3 μmol/kg
  LDL: 11.0 mg/dL
[3]; 0.6 μmol/kg
  Total Cholesterol (CHOL): 110 mg/dL
[3]; 1.2 μmol/kg
  Free Fatty Acid (FFA): 1.70
  LDL: 9.5 mg/dL
[3]; 2.4 μmol/kg
  HDL: 79.0 mg/dL
[4]; 0.15 μmol/kg
  Kidney Weight: 98 % of saline control
  Liver Weight: 96 % of saline control
[4]; 0.3 μmol/kg
  Liver Weight: 91 % of saline control
[4]; 0.6 μmol/kg
  Liver Weight: 96 % of saline control
[4]; 1.2 μmol/kg
  Liver Weight: 90 % of saline control
[4]; 2.4 μmol/kg
  Kidney Weight: 100 % of saline control
  Liver Weight: 100 % of saline control
[5]
  Kidney Full-Length Antisense Compound Tissue Concentration: 32.0 µM
  Kidney Total Antisense Compound Tissue Concentration: 34.0 µM
ApoB mRNA [1]; 2.4 μmol/kg
  ApoB mRNA level: 77 % of saline control
  % ApoB mRNA Level (relative to saline control): 77.0%
ApoB mRNA [1]; 1.2 μmol/kg
  % ApoB mRNA Level (relative to saline control): 90.0%
[2]; 0.3 μmol/kg
  AST: 60.0 IU/L
[2]; 0.6 μmol/kg
  ALT: 28.0 IU/L
[2]; 2.4 μmol/kg
  ALT: 26.0 IU/L
  AST: 49.0 IU/L

## 391172 (antisense lC*lT*dA*dG*dC*dC*dT*dC*dT*dG*dG*dA*lT*lT*lT) [compound 391172]
[6]
  Liver Weight: 120 % Saline
PTEN mRNA
  % PTEN mRNA levels in Kidney: 63%
  % PTEN mRNA levels in Liver: 18%

## 392061 (antisense l[5mC]*lT*dA*dG*dC*dC*dT*dC*dT*dG*dG*dA*lT*lT) [compound 392061]
[6]
  ALT: 42.0 IU/L
PTEN mRNA
  % PTEN mRNA levels in Fat: 85%
  % PTEN mRNA levels in Kidney: 61%
  % PTEN mRNA levels in Liver: 24%

## 398296 (GGTACATGGAAGTC; 2-10-2 (6'S)-6'-methyl BNA gapmer, chemistry not fully specified) [compound 398296]
ApoB mRNA [7]; i.p. 0.1 umol/kg twice per week for three weeks
  % Inhib: 17%
ApoB mRNA [7]; i.p. 0.32 umol/kg twice per week for three weeks
  % Inhib: 35%
ApoB mRNA [7]; i.p. 1 umol/kg twice per week for three weeks
  % Inhib: 80%
ApoB mRNA [7]; i.p. 3.2 umol/kg twice per week for three weeks
  % Inhib: 98%
ApoB mRNA [8]; single i.p. injection 1 umol/kg
  % Inhib: 19%
ApoB mRNA [8]; single i.p. injection 2 umol/kg
  % Inhib: 54%
ApoB mRNA [8]; single i.p. injection 4 umol/kg
  % Inhib: 81%
ApoB mRNA [8]; single i.p. injection 8 umol/kg
  % Inhib: 97%

## 399301 (GTGTGCACACAGCT; all C 5-methyl, all phosphorothioate, sugars by position not given here; further chemistry not fully specified) [compound 399301]
PTP1B mRNA [9]; PPS 198, 1.11 nM
  % Inhibition: 8%
PTP1B mRNA [9]; PPS 198, 3.33 nM
  % Inhibition: 63%
PTP1B mRNA [9]; PPS 198, 10.0 nM
  % Inhibition: 91%
PTP1B mRNA [9]; PPS 198, 30.0 nM
  % Inhibition: 97%
PTP1B mRNA [9]; PPS 3000, 1.11 nM
  % Inhibition: 16%
PTP1B mRNA [9]; PPS 3000, 3.33 nM
  % Inhibition: 65%
PTP1B mRNA [9]; PPS 3000, 10.0 nM
  % Inhibition: 93%
PTP1B mRNA [9]; PPS 3000, 30.0 nM
  % Inhibition: 99%
PTP1B mRNA [10]
  % Inhib: 55%
PTP1B mRNA [11]
  % Inhib: 43%

## ISIS 391872: GGTACATGGAAGTC 1-1-10-2 2′-(butylacetomido)-palmitamide Methyleneoxy BNA/Methyleneoxy BNA, Unmodified cytosines in gap, ApoB ([PAM-G]*lG*dT*dA*dC*dA*dT*dG*dG*dA*dA*dG*lT*l[5mC])
[12]; at the 2.5 and 1.0 mg/kg doses
  Triglycerides: reduced
[12]; in a dose-dependent manner
  total cholesterol, HDL-C and LDL-C: markedly reduced
